Results reported in patent US20050238655A1, “Antiviral activity from medicinal mushrooms” (priority 2004, published 2005).

Legend:
Vaccinia = type: cell-based
Cowpox = type: cell-based

Nc1ccn(C[C@@H](CO)OCP(=O)(O)O)c(=O)n1 [CDV]
PR CDV EC90 (Vaccinia): 17 µg/mL
PR CDV EC90 (Cowpox): 18.1 µg/mL
